Reference: patent US20170196296A1, “Amphoteric Metal Compound-Treated Substrate And Methods For Reduction Of Body Odor Using Treated Substrates” (priority 2016, published 2017)

Assay: solubility of copper hydroxide in ammonia solutions
Format: physicochemical
Excerpt: If the substrate is desirably a keratin-based material, then the substrate is selected from materials such as wool or hair (such as alpaca hair), and the AMH compound is preferably copper hydroxide (Cu[OH]2), which can be dissolved in an ammonia solution, resulting in an aqua ammonia solution of Schweizer's reagent, Cu[NH3]4[H2O]2][OH]2. […] Standard aqua ammonia (25%) saturates at only about 3% copper hydroxide W/W, and the concentrated ammonia solution is hazardous to breathe. However, the ammonia in the aqua ammonia+copper hydroxide solution can be mostly substituted with harmless ingredients. For example, a wool substrate can be soaked in an aqueous solution which is composed of only 3% ammonia, 4% W/W of ammonium chloride and 10% W/W of sodium carbonate will also dissolve 3% copper hydroxide, and after drying, the ammonium chloride and sodium carbonate can be rinsed away. A wool substrate thus treated will retain as much copper hydroxide as a substrate treated in solution of 3% copper hydroxide (saturated solution) in aqua ammonia (25% ammonia). Upon being soaked in either formula of 3% copper hydroxide solution, the surface of the wool immediately absorbs the copper hydroxide. Excess solution is squeezed out of the substrate material, and the substrate is allowed to dry. […]

## [OH][Cu][OH] [Cu(OH)2, copper(ii) hydroxide]
3% ammonia, 4% W/W ammonium chloride, 10% W/W sodium carbonate
  amount dissolved in aqueous ammonia/ammonium chloride/sodium carbonate solution: 3%
Aqua ammonia (25%)
  saturation concentration in standard aqua ammonia: about 3 % W/W
